In US7504384B2 (priority 2000, dated 2009):
Where two headings read alike, the source gives them in different places.

How the values were obtained:
[1] = tested on: HIV-1IIIB-infected H9 cells and uninfected MT-2 cells; assay: Inhibition of fusion between HIV-infected and uninfected cells; format: cell-based; settings: for IC50 (mean ± SD), inhibition of fusion / IC90 (mean ± SD), inhibition of fusion: H9/HIV-1 IIIB + MT-2 cells, 2 h; for IC50 / IC90: Table 1.4
Protocol: In this assay, HIV-1IIIB-infected H9 cells were labeled with BCECF (2′,7′-bis(2-carboxyethyl)-5-6-carboxyfluorescein-acetoxymethyl-ester, Molecular Probes, Eugene, Oreg.) according to the manufacturer's instructions. BCECF-labeled H9/HIV-1 IIIB cells (10^4) were mixed with 1×10^5 uninfected MT-2 cells. After incubation in a 96-well plate at 37° C. for 2 h, the fused and unfused labeled cells were counted under an inverted fluorescence microscope at ×160 magnification. At least 200 BCECF-labeled cells were counted and the proportion of fused cells was determined Fusion tests were carried out in the presence and absence of graded quantities of the tested Lipid-conjugates. […] The IC50 represents the concentration of a drug that is required to achieve 50% inhibition. Similarly, the IC90 represents the concentration of a drug that is required to achieve 90% inhibition.

[2] = tested on: Punta Toro virus; format: cell-based, strain Adames
[3] = tested on: Respiratory syncytial virus; format: cell-based, strain A2; settings: lower range of doses, at the concentrations tested
[4] = tested on: HIV-1IIIB; assay: Inhibition of p24 production (HIV-1IIIB infection of MT-2 cells); format: cell-based; settings: fourth day, p24 ELISA
Protocol: Experiment 1.2: Inhibition of HIV-1IIIB Infection
After 1 h, half of the culture medium was changed and replaced by fresh medium (with/without Lipid-conjugate) and after 24 h, the second half of the culture medium was changed and replaced by fresh medium (with/without Lipid-conjugate). On the fourth day after incubation at 37° C., 100 μl of culture supernatants were collected from each well and an equal volume of fresh medium was added to the wells. The collected supernatants were mixed with an equal volume of 5% (v/v) Triton X-100 and assayed for p24 antigen using an ELISA kit from Coulter Immunology (Hialeah, Fla.).

[5] = target: V3 (third variable) domain of the HIV-1 envelope glycoprotein gp120; assay: V3 antibody binding (ELISA); design: species or system human immunodeficiency virus type 1 (HIV-1); settings: standard ELISA
Protocol: V3 antibody binding is an assay that uses an antibody that binds to the V3 (third variable) domain of the human immunodeficiency virus type 1 (HIV-1) envelope glycoprotein gp120. Anti-V3 domain antibodies may provide an indicator of the presence and amount of HIV. V3 antibody binding was determined by standard ELISA.

[6] = tested on: mice; assay: Acute (7 day) toxicity test; format: in vivo; settings: mice, one week after a single i.p. dose of 1000, 500 or 200 mg/kg; versus untreated mice
Protocol: […] Mortality rate, body weight, blood count (red and white cells), hematocrit, and internal organ histology after sacrifice were assessed. These parameters were compared in Lipid-conjugate-treated and in control, untreated mice.

[7] = tested on: Influenza A (H3N2 strain) virus; format: cell-based, Influenza type A, A/Panama/2007/99 (H3N2)
[8] = tested on: Punta Toro virus; format: cell-based, strain Adames; remark: listed apart in the source
[9] = tested on: Influenza B virus; format: cell-based, Influenza type B, B/Hong Kong/330/02; settings: lower range of doses, at the concentrations tested
[10] = tested on: vaccinia virus (WR strain); format: cell-based; settings: 48 hr
[11] = tested on: Influenza A (H1N1 strain) virus; format: cell-based, Influenza type A, A/New Caledonia/20/99 (H1N1); settings: high concentration; Visual Observation Assay; Influenza A (H1N1 strain)
[12] = tested on: Influenza A (H3N2 strain) virus; format: cell-based, Influenza type A, A/Panama/2007/99 (H3N2); settings: high concentration, Neutral Red Uptake Assay
[13] = tested on: Influenza A (H1N1 strain) virus; format: cell-based, Influenza type A, A/New Caledonia/20/99 (H1N1); settings: high concentration, Neutral Red Uptake Assay
[14] = tested on: PGE2 and TXB2 production by guinea pig tracheal rings; assay: Tracheal tissue PGE2 and TXB2 production (radioimmunoassay); settings: Histamine (40 μM) + Compound XXVI (10 μM); histamine alone 5.6
Protocol: Experiment 3.5: Guinea pig tracheal rings were incubated with or without Compound XXVI for 30 minutes prior to stimulation. The medium was collected after 30 minutes, and PGE2 and TXB2 levels were determined by radioimmunoassay (Table 3.2). PGE2 and TXB2 are metabolites of arachidonic acid produced during inflammatory response.

[15] = tested on: Guinea pig tracheal rings; assay: Inhibition of tracheal ring contraction; settings: Lipid-conjugate 10 μM
Protocol: A muscle preparation (tracheal rings) was isolated from rats (Experiments 3.1-3.3) and from guinea pigs (Experiments 3.4-3.5). Muscle contraction was measured by attachment of the muscle to a pressure transducer, which works much like a spring. Administration of asthmatogenic substances such as endothelin-1 (ET) and acetylcholine (AcCh) induces muscle contraction. Endothelins are released upon vascular endothelial injury, and they activate macrophages and act as strong chemo-attractants for circulating monocytes. Endothelins affect vascular smooth muscle fibroblast proliferation; help regulate vascular, airway, and intestinal smooth muscle tone; increase the activity of bone alkaline phosphatase; stimulate release of atrial natriuretic peptide (ANP) from atrial cardiocytes; inhibit the release of renin from glomeruli and modulate norepinephrine at sympathetic nerve termini. Opposing vasomotor effects are regulated through the binding of distinct endothelin receptors for vasoconstriction and vasodilation. Endothelins have been linked to atherosclerosis and various cardiovascular disease states. ET-1 is important in congestive heart failure, renal failure, pulmonary hypertension, hyperlipidemia and metastatic prostate cancer. On the other hand, AcCh is one of the three main receptors on the bronchi of the lungs, which are basically tubes with muscular walls. Stimulation of bronchial AcCh receptor induces muscle contraction and decreased airflow through the bronchi. Thus, ET and AcCh were used to experimentally induce muscle contraction in the lungs as a model of obstructive respiratory disorders.
Experiment 3.4: Guinea pig tracheal rings (in a linear array), immersed in a ringer bath, were connected to an apparatus measuring the length of the ring chain. […] Human airways have both Histamine (H)-1 and H2 receptors. H1 receptors, which mediate bronchoconstriction, predominate. Histamine application in experimental models produces signs and symptoms of asthma, such as narrowing of the airways, mucus secretion, wheezing, and coughing.

[16] = tested on: Human RBC; assay: Prevention of hemolysis of human red blood cells; format: cell-based; settings: 20 min, 10 μM Lipid-conjugate, None = 1.000
Protocol: Hemolysis, the breakdown of red blood cells (RBC), may be either a primary disease in itself, or a syndrome associated with another disease or physiological insult. In order to determine the effect of Lipid-conjugates on hemolysis, red blood cells were incubated in the presence of known membrane destabilizing agents and the release of hemoglobulin into the extracellular medium was detected.
Human RBC were washed in saline and suspended in Hanks buffer (pH 7.4). Hemolysis was induced in the absence or presence of 10 μM Lipid-conjugates by treatment with either 5 U/ml streptolysin O (SLO), 25 U/ml streptolysin S (SLS), or 5 μg/ml lysophosphatidylcholine (lyso-PC) for 20 min. The cell membranes were spun and the hemoglobin content in the supernatant was determined by measuring the O.D. at 540 nm (Table 5.1).

[17] = lower range of doses, at the concentrations tested

| Compound | IC50 (mean ± SD), inhibition of fusion [1] [µg/mL] | IC90 (mean ± SD), inhibition of fusion [1] [µg/mL] | IC50 [1] [µM] | IC90 [1] [µM] | IC50 [4] [µM] | IC50 (mean ± SD), inhibition of p24 production [4] [µg/mL] | IC90 [4] [µM] | IC90 (mean ± SD), inhibition of p24 production [4] [µg/mL] | IC50 [5] [µM] | toxicity: mortality rate, body weight, blood count, hematocrit, internal organ histology [6] | % inhibition [10] [%] | Virus titer [10] | further results |
| --- | --- | --- | --- | --- | --- | --- | --- | --- | --- | --- | --- | --- | --- |
| dipalmitoyl-phosphatidyl-ethanolamine (PE) conjugated to chondroitin-sulfate A [Compound XXV] | >500 | >500 | > 10 | > 10 | 1.45 | 72.5 ± 8.0 | 2.12 | 106.0 ± 10.3 | 0.2 | induced hemorrhage | 62.8 | 3.2 × 10^7 PFU/culture | SI (IC50/EC50) [2]: 0; EC50 ([2]; low concentrations, Neutral Red Uptake Assay, Punta Toro A): >100 µg/mL; virus inhibitory effect against RSV [3]: did not demonstrate a virus inhibitory effect; virus inhibitory effect against influenza A (H3N2 strain) [7, 17]: did not demonstrate a virus inhibitory effect; SI (IC50/EC50) [8]: 0; EC50 ([8]; low concentrations, Visual Observation Assay, Punta Toro A): >100 µg/mL; virus inhibitory effect against Punta Toro virus [8, 17]: did not display a virus inhibitory effect; virus inhibitory effect against influenza B [9]: did not demonstrate a virus inhibitory effect |
| NC(=O)c1ncn([C@@H]2O[C@H](CO)[C@@H](O)[C@H]2O)n1 [Ribavirin, reference compound] |  |  |  |  |  |  |  |  |  |  |  |  | SI (IC50/EC50) ([7]; high concentration, Visual Observation Assay, Influenza A (H3N2 strain)): 56; SI (IC50/EC50) [11]: 22; SI (IC50/EC50) [12]: 36; SI (IC50/EC50) [13]: 25 |
| dimyristoyl-phosphatidyl-ethanolamine linked to HA [Compound XXIII] | 122.8 ± 14.8 | 219.8 ± 10.6 | 1.83 | 3.3 | 1.77 | 118.0 ± 16.8 | 4.44 | 296.3 ± 104.0 | 3 |  | 99.9 | 7.7 × 10^4 PFU/culture |  |
| PE conjugated to CMC [Compound XXVI] |  |  |  |  |  |  |  |  |  | did not alter the parameters |  |  | TXB2 [14]: 1.75 ng/mL; % Inhibition of tracheal ring contraction ([15]; stimulant Endothelin-1 (100 nM)): 92 ± 1.1%; % Inhibition of tracheal ring contraction ([15]; stimulant Histamine (20 μM)): 69 ± 0.1%; % Inhibition of tracheal ring contraction ([15]; stimulant Phospholipase (0.5 μ/ml) (crotalus atrox type II)): 100 ± 0.3% |
| PE conjugated to Polygeline (haemaccel) [Compound XXVII] | >500 | >500 |  |  |  | 375.8 ± 119.5 |  | >500 |  |  |  |  |  |
| hyaluronic acid [HA, reference compound] |  |  |  |  |  |  |  |  |  |  |  |  | HEMOLYSIS (O.D. AT 540 nm), Lyso-PC ([16]; 5 μg/ml lysophosphatidylcholine): 1.875 O.D.; HEMOLYSIS (O.D. AT 540 nm), SLO ([16]; 5 U/ml streptolysin O): 1.000 O.D.; HEMOLYSIS (O.D. AT 540 nm), SLS ([16]; 25 U/ml streptolysin S): 1.000 O.D. |
